We go through 15 molecules from patent publication US6306857A, “Methods for treating or preventing alzheimer's disease using substituted 1-aryl-3-piperazin-1'-yl propanones” (Molecular Geriatrics Corporation, priority 1999, dated 2001).

What is called zone of inhibition is the size of the clear area around the sample on an inoculated plate.

Each structure is given as a SMILES string. Structures can show the parent of a compound that is named as a salt. Where two headings read alike, the source gives them in different places.

What all share (assay type): cell-based
Assay [1] concerns microtubule cytoskeleton of cultured human CG neuroblastoma cells. In words: Antimicrotubule activity (tubulin immunofluorescence microscopy). To be noted: Neuroblastoma cell, read-out: Concentration where microtubule destabilization occurs. How it is done: The compounds of the invention according to formula I are effective in destabilizing microtubules, thus are useful in treating certain neoplastic diseases. Indirect immunofluorescence microscopy using the monoclonal antibodies to tubulin is used herein to determine the activity of the compounds of this invention in promoting depolymerization of the microtubule cytoskeleton in cultured cells. The following assay was employed.
Cultured human CG neuroblastoma cells were seeded 1:3 from confluent cultures onto sterile 11×22 mm coverslips in 6 well tissue culture plates 16 hr prior to treatment. The following day, the tissue culture medium is removed and the cells are exposed to various concentrations of compounds of this invention in Krebs Ringer Hepes (KRH) buffer containing a final concentration of 0.5% DMSO as carrier. Incubations were performed at 37° C. in a humidified 5% CO2 atmosphere for 2 hr. After incubation, the cells were fixed in 3% TEM grade formaldehyde in PBS for 45 min at room temperature.
To visualize the effects of the compounds of the invention on the microtubule cytoskeleton, the cells were processed for tubulin immunofluorescence. Briefly, the cells were permeabilized in 0.5% Triton-X 100 in PBS for 5 min. The cells were washed 2× with PBS and aldehydes reduced using 0.5 mg/ml NaBH4 in PBS for 5 min. Subsequently, the cells were blocked for 10 min in 1.5% BSA and 1.5% nonfat dry milk in PBS (blocking solution, BS) for 10 min. The cells were then incubated for 30 min at 37° C. with the monoclonal antibody Tu27B which recognizes b-tubulin (dilution 1:20 in BS). Subsequently, the cells were washed 2× in PBS and once in BS. The cells were then incubated for 30 min at 37° C. with sheep antimouse IgG conjugated to FITC. After incubation, the cells were washed 2× in PBS and once in BS and incubated. for 30 min at 37° C. with rabbit antisheep IgG conjugated to FITC. The cells were rinsed in PBS, counterstained with Hoechst 33285 in PBS (1 μg/ml), and rinsed in PBS. The coverslips were mounted in 9:1 glycerol:PBS containing 1 mg/ml p-phenylenediamine and sealed with nail polish.
The cells were viewed using a Jenalumar epifluorescence microscope equipped with the proper filters for Fluorescein Isothiocyanate (FITC) excitation and emission. Lack of effect of a compound is evidenced by the presence of an intact microtubule network in interphase cells, or a mitotic spindle dividing cells. Antineoplastic compounds of the invention at effective doses result in the disapperance of microtubules in both interphase and mitotic cells.

A further assay concerns Candida albicans SRI 523. Kind of assay: agar disc diffusion assay, C. albicans. To be noted: SRI523, 240 ug/disc, about 24 hr at 37° C., Mueller-Hinton agar, read-out: Diameter of the zone of inhibition, C. albicans. Here is the method: (§1) The activity of the compounds is determined using the following assay. The compound is dissolved in DMSO at a concentration of 6 mg/ml and then diluted with water to a final concentration of 3 mg/ml in 50% DMSO (% DMSO was shown not to be inhibitory to the test organisms). An aliquot (0.08 ml) of each drug solution was transferred to filter paper discs (12.7 mm diameter, Scmeicherand Schuell) for use in the agar diffusion assay. The concentration of each drug on the filter paper disc was 240 ug/disc. The test organisms included the following: Gram-positive aerobes (Staphylococcus aureus SRI 1323, Streptococcus pneumoniae SRI 1167); Gram-negative aerobe (Proteus vulgaris SRI 180); and the yeast Candida albicans SRI 523. An agar disc diffusion assay was used to evaluate the antimicrobial activity of the test compounds. Briefly, cultures were prepared from 16-20 hr agar slant cultures by inoculating in physiological saline to a turbidity equivalent to a #0.5 McFarland turbidity standard for the bacteria and a #3 McFarland standard for C. albicans. The surface of Mueller-Hinton agar (15×100 mm plates, mm) were evenly inoculated with each standardized culture using a cotton swab. Filter paper discs containing the drug concentration listed above were then placed on the inoculated agar plates along with a disc containing the solvent used to dissolve each drug. The plates were incubated at 37° C. for about 24 hr and the diameters of the zones of inhibition measured with a vernier caliper. Positive control drugs consisted of streptomycin for use with the bacterial strains and 5-fluorocytosine for use with C. albicans. The positive control drugs were assayed as described above for the compounds of the present invention using the same concentration.
For orientation: In agar diffusion tests the substance spreads into inoculated agar from a disc or well.

A further assay deals with Proteus vulgaris SRI 180. In words: agar disc diffusion assay, P. vulgaris. The conditions noted are these: SRI180, 240 ug/disc, about 24 hr at 37° C., Mueller-Hinton agar, read-out: Diameter of the zone of inhibition, P. vulgaris. Here is the method: as §1
In assay [2] the test system is Staphylococcus aureus SRI 1323. In words: agar disc diffusion assay, S. aureus. To be noted: SRI1323, 240 ug/disc, about 24 hr at 37° C., Mueller-Hinton agar, read-out: Diameter of the zone of inhibition, S. aureus. How it is done: as §1
The subject of assay [3] is Streptococcus pneumoniae SRI 1167. Kind of assay: agar disc diffusion assay, S. pneumoniae. The conditions noted are these: 240 ug/disc, about 24 hr at 37° C.; for zone of inhibition at 240 µg/disc: Streptococcus pneumoniae, SRI1167, Mueller-Hinton agar, read-out: Diameter of the zone of inhibition, S. pneumoniae. Here is the method: as §1
Where [4] appears, read: 2 hr at 37° C., 0.5% DMSO in KRH.

As for `N#Cc1ccc(C(=O)CCN2CCN(Cc3ccccc3)CC2)s1` [Example 85, 1-(5"-Cyano-2"-thienyl)-3-(4'-benzyl-1'-piperazinyl)-1-propanone dihydrochloride], in assay [1] (setting [4]), the minimal effective concentration amounted to 20 µM.
For `O=C(CCN1CCN(Cc2ccccc2)CC1)c1ccc(F)c2ccccc12` [Example 21, 1-(4"-Fluoronaphth-1"-yl)-3-(4'-benzyl-1'-piperazinyl)-1-propanone dihydrochloride], the zone of inhibition at 240 µg/disc turned out to be 26.6 mm in the assay with Candida albicans SRI 523, 0 mm with Proteus vulgaris SRI 180, 33.8 mm in assay [2] and 40.7 mm in assay [3]. Also, in assay [1] (setting [4]), the minimal effective concentration was found to be 20 µM.
Take `O=C(CCN1CCN(Cc2ccccc2)CC1)c1ccc(Nc2ccc([N+](=O)[O-])cc2[N+](=O)[O-])cc1` [Example 113, 1-(4"-[2'",4'"-Dinitrophenylamino]phenyl)-3-(4'-benzyl-1'-piperazinyl)-1-propanone dihydrochloride]: the minimal effective concentration in assay [1] (2 h) is 20 µM.
Take `O=C(CCN1CCN(Cc2ccccc2)CC1)c1csc([N+](=O)[O-])c1` [Example 80, 1-(5"-Nitro-3"-thienyl)-3-(4'-benzyl-1'-piperazinyl)-1-propanone dihydrochloride]: the zone of inhibition at 240 µg/disc was 14.5 mm in the assay with Candida albicans SRI 523, 13.8 mm with Proteus vulgaris SRI 180 and 17.2 mm in assay [2]. The “Diameter of the zone of inhibition, S. pneumoniae (symbol)” value in assay [3] (zone too large to measure) is “+”.
Turning to `O=C(CCN1CCN(C(=O)c2c(F)cccc2F)CC1)c1ccccc1F` [Example 41, 1-(o-Fluorophenyl)-3-[4'-(2",6"-difluorobenzoyl)-1'-piperazinyl]-1-propanone hydrochloride], the minimal effective concentration in assay [1] (setting [4]) was determined as 20 µM.
As to `O=C(CCN1CCN(Cc2ccccc2)CC1)c1conc1-c1ccccc1` [Example 112, 1-(3"-Phenylisoxazol-4"-yl)-3-(4'-benzyl-1'-piperazinyl)-1-propanone dihydrochloride], in assay [1] (setting [4]), the minimal effective concentration was 20 µM.
On the same count and under the same terms, the value for `O=C(CCN1CCN(Cc2ccccc2)CC1)c1cc([N+](=O)[O-])c(Cl)s1` [Example 95, 1-(5"-Chloro-4"-nitro-2"-thienyl)-3-(4'-benzyl-1'-piperazinyl)-1-propanone dihydrochloride] was 20 µM.
Take `O=C(CCN1CCN(Cc2ccccc2)CC1)c1ccc([N+](=O)[O-])cc1` [Example 5, 1-(p-Nitrophenyl)-3-(4'-benzyl-1'-piperazinyl)-1-propanone dihydrochloride]: the zone of inhibition at 240 µg/disc in the assay on Candida albicans SRI 523 stood at 17.6 mm; with Proteus vulgaris SRI 180 it was 17.3 mm; in assay [2], 22.8 mm; in assay [3] it was 29.9 mm. In addition, in assay [1] (setting [4]), the minimal effective concentration worked out at 4 µM.
For the molecule `N#Cc1cccc(C(=O)CCN2CCN(Cc3ccccc3)CC2)c1` [Example 60, 1-(m-Cyanophenyl)-3-(4'-benzyl-1'-piperazinyl)-1-propanone dihydrochloride], the minimal effective concentration in assay [1] (setting [4]) came out at 20 µM.
`O=C(CCN1CCN(C(c2ccccc2)c2ccc(Cl)cc2)CC1)c1ccc(Br)s1` (centres unmarked) [Example 78, 1-(5"-Bromo-2"-thienyl)-3-[4'-(1'"-p-chlorophenyl-1'"-phenylmethyl)-1'-piperazinyl]-1-propanone dihydrochloride]: the zone of inhibition at 240 µg/disc in the assay on Candida albicans SRI 523 came out at 15.2 mm; in the assay with Proteus vulgaris SRI 180, 14.5 mm; in assay [2], 16.2 mm; in assay [3] it was 19.7 mm.
The like results for `O=C(CCN1CCN(Cc2ccccc2)CC1)c1ccc(F)c(Br)c1` [Example 25, 1-(p-Fluoro-m-bromophenyl)-3-(4'-benzyl-1'-piperazinyl)-1-propanone dihydrochloride] were, in that order, 26 mm, 16 mm, 27.5 mm and 36.3 mm.
Consider `O=C(CCN1CCN(Cc2ccccc2)CC1)c1cccs1` [Example 7, 1-(2"-Thienyl)-3-(4'-benzyl-1'-piperazinyl)-1-propanone dihydrochloride], for which the minimal effective concentration in assay [1] (setting [4]) came to 20 µM.
In the case of `O=C(CCN1CCN(Cc2ccccc2)CC1)c1ccc(C2CCCCC2)cc1` [Example 27, 1-(p-Cyclohexylphenyl)-3-(4'-benzyl-1'-piperazinyl)-1-propanone dihydrochloride], the minimal effective concentration in assay [1] (setting [4]) was found to be 20 µM.
Regarding `O=C(CCN1CCN(C(=O)c2ccccc2C(F)(F)F)CC1)c1ccccc1F` [Example 43, 1-(o-Fluorophenyl)-3-[4'-(o-trfuoromethylbenzoyl)-1'-piperazinyl]-1-propanone hydrochloride], the zone of inhibition at 240 µg/disc with Candida albicans SRI 523 turned out to be 22.5 mm; with Proteus vulgaris SRI 180, 15.9 mm; in assay [2] it was 17.7 mm; in assay [3], 25.3 mm.
`O=C(CCN1CCN(Cc2cc(F)ccc2F)CC1)c1ccsc1` [Example 38, 1-(3"-Thienyl)-3-[4'-(2'",5'"-difluorobenzyl)-1'-piperazinyl]-1-propanone dihydrochloride]: in assay [1] (setting [4]), the minimal effective concentration came out at 20 µM.
